The nature of data set [1]: Incubation with U937 cell lysate, SDS-PAGE. The settings on record: 24 hour test period, compared with A2G GLP-2 mimetibody (SEQ ID NO: 5). In kind it is in vitro ADME. Here is the method:
The purified Pro substitution variants were incubated with U937 cell lysate in the presence of CompleteMini protease inhibitor tablets (Cat. No. 1 836 153, Roche Applied Science, Indianapolis, Ind.) for 0, 12, or 24 hours. Afterwards, GLP-2 mimetibody variants were purified using Protein A beads and resolved on a SDS-PAGE gel.

Data set [2] deals with T1, mutated human GLP-2R (Homo sapiens, UniProt O95838, E512D/G511A/L513V).
T1 construct: expressed in transfected cells; host or cells: HEK 293E (clonal line, transfected)
T1 sequence (O95838 1-553 G511A/E512D/L513V): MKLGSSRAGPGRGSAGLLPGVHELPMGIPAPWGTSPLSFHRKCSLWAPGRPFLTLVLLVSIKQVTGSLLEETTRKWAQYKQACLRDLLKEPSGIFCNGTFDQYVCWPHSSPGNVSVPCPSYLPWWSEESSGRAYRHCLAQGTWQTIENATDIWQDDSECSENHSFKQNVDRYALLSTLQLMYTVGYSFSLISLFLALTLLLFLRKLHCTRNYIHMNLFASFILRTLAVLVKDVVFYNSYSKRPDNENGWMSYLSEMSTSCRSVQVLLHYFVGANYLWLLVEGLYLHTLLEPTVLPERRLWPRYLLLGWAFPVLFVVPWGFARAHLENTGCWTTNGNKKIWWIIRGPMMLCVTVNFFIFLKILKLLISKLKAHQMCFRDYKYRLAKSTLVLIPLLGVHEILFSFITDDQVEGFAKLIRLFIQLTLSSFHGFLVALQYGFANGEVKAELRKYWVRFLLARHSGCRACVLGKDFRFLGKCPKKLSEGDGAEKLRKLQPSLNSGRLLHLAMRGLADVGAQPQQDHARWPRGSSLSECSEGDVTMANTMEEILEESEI
The data set is described as follows: cAMP expression assay. It is filed as cell-based. The following applies: for EC50: Table 5, peptides 0.01 nM to 1.0 uM, 30-minute incubation at 37° C., read-out: cAMP in Vitro EC50 values; for less activity relative to wild type GLP-2: from cAMP EC50. From the text:
To achieve this goal, a clonal cell line expressing a mutated human GLP-2R was generated by transfecting HEK 293E cells. The mutated human GLP-2R differs from the wild-type human GLP-2R (SEQ ID NO: 35) at three amino acid positions within the C-terminal intracellular region (SEQ ID NO: 36).
The CAMP expression was quantitated using the cAMP Direct Screen System (Cat. No. CSD 200, Applied Biosystems, Bedford, Mass.).
This assay was based on the cAMP Direct screen system from Applied Biosystems utilizing a cell line expressing mutated huGLP-2R in HEK 293E cells. Peptide at concentrations ranging from 0.01 nM to 1.0 uM in PBS with 0.5% BSA was added to ˜50,000 cells suspended in 96-well plates. After a 30-minute incubation at 37° C., Lysis Buffer followed by luminescence reagents (Applied Biosystems) was added according to the manufacturers' procedures (Applied Biosystems Luminescence protocol: cAMP-Screen Direct System). Luminescence was quantitated using a TopCount liquid scintillation analyzer (PerkinElmer), and data was processed using Softmax software (Molecular Devices Corporation).

Data set [3] is described as follows: SEC-SLS solution molecular weight / self-association. The following applies: PBS (pH 7.5); for SEC-SLS elution / association state of peptides: 1 mg/ml. In kind it is physicochemical. Here is the method:
Solution molecular weight of the peptides was measured by SEC-SLS. Briefly, peptide solutions in PBS (pH 7.5) at 0.4 to 2.0 mg/mL were fractionated over a Superdex peptide column (Amersham Pharmacia). The eluted peaks were monitored by static light scattering at 690 nm and solution molecular weight was determined at UV 280 nm using the Astra software package (Wyatt Inc.).

A short description of data set [4]: CD spectra secondary structure. The settings on record: 0.2 mg/mL peptide in PBS, 25° C. It is filed as physicochemical. The method, then:
The secondary structures of tested peptides were determined using 0.2 mg/mL peptide solutions in PBS. Briefly, CD spectra were collected in triplicate at 1 nm intervals at 25° C. in 0.1 cm path length cell. Secondary structures were determined by fitting of the CD spectra using CD spectra software (CD Spectra Deconvolution software 2.1). All tested peptides contained peaks corresponding to the presence of alpha helices.

A short description of data set [5]: SEC-SLS solution molecular weight / self-association. The settings on record: purified mimetibody. It is filed as physicochemical.

Ends that are not written are not given here.

We go through 7 molecules from patent US7812121B2 (priority 2006, dated 2010).

Consider “SEQ ID NO: 44: A2G GLP-2 mimetibody Pro substitution variant, V2 GALVAVSP (HGDGSFSDEMNTILDNLAARDFINWLIQTKITDGSGGGSGALVAVSPESKYGPPCPPCP; Mimetibody)”, for which the “degradation / resistance to proteolysis” value in data set [1] is listed as “less degradation”.

In the case of `CC[C@H](C)[C@H](NC(=O)[C@H](Cc1ccccc1)NC(=O)[C@H](CC(=O)O)NC(=O)[C@H](CCCNC(=N)N)NC(=O)[C@H](C)NC(=O)[C@H](C)NC(=O)[C@H](CC(C)C)NC(=O)[C@H](CC(N)=O)NC(=O)[C@H](CC(=O)O)NC(=O)[C@H](CC(C)C)NC(=O)[C@@H](NC(=O)[C@@H](NC(=O)[C@H](CC(N)=O)NC(=O)[C@H](CCSC)NC(=O)[C@H](CCC(=O)O)NC(=O)[C@H](CC(=O)O)NC(=O)[C@H](CO)NC(=O)[C@H](Cc1ccccc1)NC(=O)[C@H](CO)NC(=O)CNC(=O)[C@H](CC(=O)O)NC(=O)[C@H](C)NC(=O)[C@@H](N)Cc1c[nH]cn1)[C@@H](C)O)[C@@H](C)CC)C(=O)N[C@@H](CC(N)=O)C(=O)N[C@@H](Cc1c[nH]c2ccccc12)C(=O)N[C@@H](CC(C)C)C(=O)N[C@H](C(=O)N[C@@H](CCC(N)=O)C(=O)N[C@H](C(=O)N[C@@H](CCCCN)C(=O)N[C@H](C(=O)N[C@H](C(=O)N[C@@H](CC(=O)O)C(=O)O)[C@@H](C)O)[C@@H](C)CC)[C@@H](C)O)[C@@H](C)CC` [SEQ ID NO: 1, GLP-2, reference compound], in data set [2] (clonal HEK 293E line expressing mutated human GLP-2R), the “stimulation of cAMP expression” value is reported as “stimulated cAMP expression”. Further, the association state entry in data set [3] (0.4 mg/mL) is “monomer”. The “SEC-SLS elution / association state of peptides” value in data set [3] was “overlapping dimer and monomer peaks”. Besides, in data set [4], the Helix is 19.6% and the Random coil turned out to be 37.9%.

In the case of “HGDGSFSDEMNTILDGQAARDFINWLIQTKITD [SEQ ID NO: 55, GLP-2(A2G, N16G, L17Q)]”, in data set [2], the EC50 came out at 3.5 nM and the “less activity relative to wild type GLP-2” value turned out to be 2 ×. Also, in data set [3], the “SEC-SLS elution / association state of peptides” value is recorded as “mainly monomeric peptide”. Also, the Random coil in data set [4] stood at 41.4%. The molecule also yielded a Helix in data set [4] (listed as GLP-2 (A2G, N16G, L17Q)) of 17.0%. In addition, in data set [4] (listed as GLP-2(A2G, N16G, L17Q)), the Helix is listed as about 17%.

“SEQ ID NO: 43: A2G GLP-2 mimetibody Pro substitution variant, V2 GALVAVPS (HGDGSFSDEMNTILDNLAARDFINWLIQTKITDGSGGGSGALVAVPSESKYGPPCPPCP; cysteine pairing not given here; also: part of GLP-2 mimetibody)”: the “degradation / resistance to proteolysis” value in data set [1] was “less degradation”.

On to “HGDGSFSDEMNTILDNQAARDFINWLIQTKITD [SEQ ID NO: 54, GLP-2(A2G, L17Q)]”, for which, in data set [2], the EC50 turned out to be 5.2 nM. The “less activity relative to wild type GLP-2” value in data set [2] amounted to 3 ×. Also, in data set [3], the “SEC-SLS elution / association state of peptides” value is recorded as “mainly monomeric peptide”. Also, in data set [4], the Random coil was 41.8%. Also, the Helix is 16.9% in data set [4] (listed as GLP-2 (A2G, L17Q)) and about 17% in data set [4] (listed as GLP-2(A2G, L17Q)).

As to “GLP-1 [SEQ ID NO: 79, reference compound]”, the “SEC-SLS elution / association state of peptides” value in data set [3] is “single peak with molecular weight within the expected monomer size”. For the same molecule, in data set [4], the Helix is given as 16.8% and the Random coil is 41.9%.

B1: SEQ ID NO: 4: A2S GLP-2 mimetibody, IgG4 Hg-CH2-CH3 with S228P and P234A/L235A (protein)
chain: HSDGSFSDEMNTILDNLAARDFINWLIQTKITDGSGGGSGTLVTVSSESKYGPPCPPCPAPEAAGGPSVFLFPPKPDTLMISRTPEVTCVVVDVSQEDPEVQFNWYVDGVEVHNAKTKPREEQFNSTYRVVSVLTVLHQDWLNGKEYKCKVSNKGLPSSIEKTISKAKGQPREPQVYTLPPSQEEMTKNQVSLTCLVKGFYPSDIAVEWESNGQPENNYKTTPPVLDSDGSFFLYSRLTVDKSRWQEGNVFSCSVMHEALHNHYTQKSLSLSLGK
modifications: Mimetibody
In the case of B1, the “SEC-SLS association state of mimetibodies” value in data set [5] is reported as “dimer”.

For orientation: EC50 means the concentration needed to bring the measured effect to its halfway point.
